Experimental data as given in patent publication US20240252463A1, “METHODS OF TREATING FIBROTIC PATHOLOGIES” (Mayo Foundation for Medical Education and Research, priority 2018, published 2024).

Columns and labels:
[1] = tested on: bleomycin-induced pulmonary fibrosis; test: Bleomycin Mouse Study, dihydrexidine treatment; type: in vivo
Description: Bleomycin Mouse Study: In the initial in vivo siRNA study (FIG. 5), adult male age-matched C57BL/6N mice at 6-8 weeks of age were purchased from the National Cancer Institute (NCI)-Frederick Mouse Repository (Frederick, MD, USA). All experiments were performed in accordance with National Institute of Health guidelines and protocols approved by the Massachusetts General Hospital Subcommittee on Research Animal Care, and maintained all mice in a specific pathogen-free (SPF) environment certified by the American Association for Accreditation of Laboratory Animal Care (AAALAC). 6-8 weeks old mice were anesthetized with ketamine and xylazine before exposure of the trachea. Lung fibrosis was induced by intratracheal injection of bleomycin (50 μl at 1.2 U/kg) or phosphate buffered saline (PBS; as control) on day 0. After 14 days Small interfering RNA (siRNA) duplexes targeting mouse Yap (L-046247-01-0005) or Taz (L-058248-01-0005) mRNA (Dharmacon) or nontargeting control siRNA were administered in vivo by intratracheal instillation at a single dose of 25 μg (each siRNA) per mouse. On day 21 Mice were sacrificed and lungs harvested for collagen determination and biochemical analyses. To obtain BAL samples for total protein concentration determination, lungs were lavaged with six 0.5-ml aliquots of PBS. BAL samples were centrifuged at 3,000 g for 20 min at 4° C. and transferred the supernatants to siliconized low-binding Eppendorf tubes (PGC Scientifics) for subsequent analysis. Total protein concentration of the BAL fluid was determined by BCA Protein Assay Kit (Pierce). In the dihydrexidine treatment studies (FIG. 4), 8 week old female C57/BL6 mice were purchased from Charles River Laboratories. Mouse lung fibrosis was induced with bleomycin (BLEO; Fresenius Kabi) delivered intratracheally (3 U/kg) to the lungs using MicroSprayer® Aerosolizer (Penn-Century). The Sham mice received sterile 0.9% saline instead using identical methods. Mice were weighed every 24 hrs, and both groups were then randomized at day 10 into DHX and Control treatment groups, matching for the degree of weight change. DHX (5 mg/kg) was administered everyday intranasally (i.n.) dissolved in surfactant (infasurf) which has previously shown to aid in spreading to pulmonary aveoli for 14 days. The control groups of mice received the equivalent vehicle dose of surfactant. Following the final DHX treatment, mice were sacrificed and the right lungs were inflated with 4% paraformaldehyde (PFA) and further incubated in 4% PFA for 24 hours prior processing for paraffin embedding. The left lobe of the lung was snap frozen in liquid nitrogen for RNA isolation and hydroxyproline assay. Experimental procedures were approved by the Mayo Clinic Institutional Animal Care and Use Committee and the animals were handled in accordance with their guidelines.
Histological Scoring: Five μm thick sections were cut from Paraffin embedded lung tissues, and the sections were stained either with hematoxylin and eosin (H&E) or with Masson's Trichrome stain kit (Abcam). All H&E-stained slides and trichrome-stained slides were reviewed in a blinded fashion by a thoracic pathologist. The severity of interstitial and peribronchiolar lung immature and mature fibrosis was estimated on a numerical scale according to Ashcroft et al. For scoring purposes, all H&E stained slides were systematically scanned at 100× magnification and successive 100× fields were scored. Scoring was based on the following scale: 0 (no fibrosis), 1 (minimal interstitial and/or peribronchiolar thickening due to fibrosis), 3 (moderate thickening without obvious architectural distortion), 5 (increased fibrosis with formation of fibrous bands and/or small masses), 7 (severe architectural distortion with large areas of fibrosis and areas of honeycomb changes), and 8 (total fibrous obliteration of the field). The predominant score for each field was recorded. The mean of all scores was calculated for each case. […]

pYAP (Ser 127) = test: Western blotting of YAP serine 127 phosphorylation, IMR-90 cells; type: cell-based, human; settings: IMR-90, DHX 10 μM, 2 hours
From the text: Scale bar represents 100 μm. […] Scale bar represents 100 μm.

[2] = tested on: Collagen I and Fibronectin; test: Immuno-ECM: TGFβ-stimulated accumulation of collagen I and fibronectin; type: cell-based, human; settings: IPF patient-derived fibroblasts, TGFβ 48 hours then DHX 24 hours
Description: Immuno-ECM: Adapting from previously published methods, IPF patient-derived fibroblasts were plated to confluence in clear-bottom 96-well plates. After cells attached, the medium was swapped for EMEM containing 0.1% FBS+2 ng/mL TGF-β. After 48 hours the indicated concentration of DHX or DMSO control was added to each well and incubated for 24 hours. WST-1 viability reagent was added to each well (Sigma-Aldrich) and measured on a Flexstation 3 (Molecular Devices) plate reader. Cells were then fixed in 3.7% formalin (Sigma-Aldrich), and permeabilized in 0.25% Triton X-100 (Sigma-Aldrich). Wells were washed with tris-buffered saline (TBS) and blocked with Li-Cor Odyssey Blocking Buffer for 60 minutes before overnight incubation in a polyclonal rabbit antibody for fibronectin (Sigma sc-9068) or collagen I (Novus NB600-408) diluted 1:200 in blocking buffer. Wells were washed with TBS-Tween before 45 minute incubation with IR-dye-conjugated secondary antibody (Li-Cor #926-32211) diluted 1:400. Plates were imaged via a Li-Cor OdysseyXL system with quantification performed via densitometry. Data are expressed as IR intensity relative to WST-1 signal absorbance in order to account for any potential compound toxicity.

[3] = bleomycin mice, 5 mg/kg once daily i.n., day 24

Oc1cc2c(cc1O)[C@H]1c3ccccc3CN[C@@H]1CC2 (racemic) [Dihydrexidine, dihydrexidine]
lung remodeling in the absence of fibrosis (body weight, histology, collagen, gene expression) ([1]; Sham DHX mice, identical time course and route): did not differ from those of control mice
weight change ([1]; bleomycin mice, 5 mg/kg once daily i.n. from Day 10): lost significantly less weight
lung histology (Ashcroft, blinded pathologist) [1, 3]: nearly completely protected from lung remodeling
staining for YAP and TAZ in the lungs [1, 3]: attenuated by DHX treatment
total collagen in the lungs (hydroxyproline) [1, 3]: nearly identical to sham treated mice
transcript levels of Acta2, Ctgf, Fn1, Col1a1, Col1a2, Yap and Taz in lung [1, 3]: significantly attenuated
YAP serine 127 phosphorylation (pYAP (Ser 127)): promoted YAP serine 127 phosphorylation
TGFβ-stimulated accumulation of collagen I and fibronectin [2]: dose-dependently reversed
